experiment: in vitro; details: human, hela cells, % viability

Row | SMILES | viability at 28.5 h, 10 µM [%]
1 | COc1ccc(Cl)cc1C(=O)O/N=C(\N)Cc1cccc2ccccc12 [CBK266275] | 98.3
2 | COc1cncc(-c2ccc(N3CCN(CCN(C)C)CC3)nc2)c1 [CBK037720] | 88.9
3 | CN(C)C(CNc1cncc(-c2cccc(Cl)c2)n1)c1cccnc1 (centres unmarked) [CBK037247] | 113
4 | CC(=O)N1CCCc2cc(NC(=O)NCCc3cnn(C)c3)ccc21 [CBK304937] | 88.7
5 | CCOC(=O)c1sc2cccc(F)c2c1COC(=O)c1ccc(CNC(N)=O)cc1 [CBK297873] | 101
6 | COc1ccnc(N2CCN(C(=O)c3cnn(C)c3C3CC3)CC2)n1 [CBK304900] | 85.3
7 | O=C(Cn1c(-c2ccc(F)cc2)cc2cccnc21)NC1CC1 [CBK284861] | 103
8 | CSc1nc2ccc(S(=O)(=O)N3CCCC3)cc2s1 [CBK268400] | 104
9 | O=C(CSc1nnc(-c2cc(Br)ccc2O)n1-c1ccccc1)N1CCc2ccccc21 [CBK268346] | 105
10 | CN(C)CCN(C)c1cncc(-c2cc3ccccc3o2)n1 [CBK066028] | 92.7
11 | Cc1ccc2c(c1)C(=O)CC1(CC3CCC1N3C(=O)C(C)C)O2 (centres unmarked) [CBK284468] | 87.1
12 | COc1ccc2[nH]c3c(c2c1)CCNC31CCN(C(=O)COc2ccccc2)C1 (centres unmarked) [CBK061661] | 88.8
13 | CCCCN(C)c1c(C)nc2c(Oc3ncccn3)cccn12 [CBK147190] | 90.9
14 | O=C(c1cccnc1)N1CCN(c2ncccn2)CC1 [CBK144516] | 95.4
15 | O=C(Cc1c[nH]c2ccccc12)N1CCC2(CCCN(Cc3c(F)cccc3F)C2)C1 (centres unmarked) [CBK132031] | 115
16 | O=C(NCc1ccc(F)cc1)c1cc(Br)cnc1NCc1cccnc1 [CBK076405] | 104
17 | Cc1cc(C(=O)N2CCCC(c3ccc(Cc4ccc(Cl)cc4)cn3)C2)nc(N(C)C)n1 (centres unmarked) [CBK286036] | 116
18 | CCCCc1ccc(S(=O)(=O)n2ccc3c(N4CCNCC4)nccc32)cc1 [CBK045805C] | 100
19 | O=C(c1ccc2[nH]c(=O)[nH]c2c1)N1CCCC2(CCN(Cc3ccccc3)C2)C1 (centres unmarked) [CBK137149] | 91.7
20 | CCC1CCCCN1C(=O)c1ccccc1C(=O)OC (centres unmarked) [CBK083196] | 92.4
21 | CCCSCC(=O)Nc1nn(C)c2cccc(N3CCOCC3)c12 [CBK307354] | 105
22 | Clc1ccc(-c2noc(-c3ccco3)n2)cc1 [CBK026405] | 86

Row | SMILES | viability at 28.5 h, 10 µM [%]
23 | CN1CCN(C(=O)CN(C)S(=O)(=O)c2ccc3ccccc3c2)CC1 [CBK267053] | 96.4
24 | Cc1ccc(C)c(NC(=O)CC2C(=O)N(c3ccccc3)C(=S)N2Cc2ccco2)c1 (centres unmarked) [CBK267119] | 94.3
25 | Cc1cccc(-c2noc(C)c2C(=O)NCCn2ccnc2C)c1 [CBK282633] | 107
26 | CCN(CC)C(=O)CCn1c(-c2cccnc2C)cc2cccnc21 [CBK282147] | 91.5
27 | Cc1cc(NC(=O)Cc2ccc(Cl)c(Cl)c2)c2ccccc2n1 [CBK116266] | 99.3
28 | CCCc1nnc(SCC(=O)Nc2cccc(C(F)(F)F)c2)n1N [CBK028004] | 104
29 | COc1cccc(C2=NO[C@@](CC(=O)O)(C(=O)NCc3ccccc3)C2)c1OC [CBK286641] | 83.4
30 | c1ccc2c(CCNc3nccnc3-c3ccoc3)c[nH]c2c1 [CBK036743] | 102
31 | CCc1ccc(Oc2cc(N3CCC(C(=O)NC4CC4)CC3)ncn2)cc1 [CBK287854] | 102
32 | Cc1cn([C@H]2C[C@@H](O)[C@@H](CN)O2)c(=O)[nH]c1=O [CBK201315] | 96.2
33 | OCc1ccccc1-c1cnc(N2CCOCC2)c2nccn12 [CBK091265] | 110
34 | O=C(NCc1ccccc1Cl)N(Cc1cccc(Cl)c1)CC1CCNCC1 [CBK049762] | 80.4
35 | CN(Cc1nccn1C)c1nccc(N2CCN[C@H]3CS(=O)(=O)C[C@H]32)n1 [CBK307394] | 84.8
36 | COc1cccc(Oc2nccnc2/C=C/c2ccccc2)c1 [CBK106877] | 107
37 | O=C(CSc1nc2ccccc2c2nc3ccccc3n12)Nc1ccc(Cl)cc1F [CBK268098] | 115
38 | O=c1c2c3nc4ccccc4nc3n(CCc3ccccc3)c2ncn1Cc1ccco1 [CBK269502] | 77.5
39 | COc1cc(NC(=O)N(CCC#N)C2CCCCC2)cc(OC)c1OC [CBK156380] | 94.4
40 | CCOC(=O)N1CCC(NS(=O)(=O)Cc2ccccc2)CC1 [CBK045457] | 90.7
41 | O=C(CSc1cnn[nH]1)Nc1cccc(C(F)(F)F)c1 [CBK269888] | 90.8
42 | CC(=O)Nc1ccc(C(=O)CSc2nnc(C)o2)cc1 [CBK267851] | 107
43 | CN(CC(=O)O)S(=O)(=O)c1ccc(F)c2ccccc12 [CBK268447] | 98.5
44 | CCCc1nnc(SC(C)C(=O)N2CCCc3ccccc32)[nH]1 (centres unmarked) [CBK306480] | 90

Row | SMILES | viability at 28.5 h, 10 µM [%]
45 | COCCNc1cc(-c2ccc(SC)cc2)ncn1 [CBK090795] | 105
46 | COc1ccc(NC(=O)CC(C(=O)O)N2CCCCC2)cc1 (centres unmarked) [CBK267115] | 101
47 | CCN(CC)CCC(C(=O)c1ccccc1)S(C)(=O)=O (centres unmarked) [CBK022802] | 88.8
48 | Cc1cc2nc(SCCNC(=O)c3ccc(Cl)cc3)nc(C)c2cc1C [CBK266223] | 93.3
49 | CCn1cc([C@H]2CN(C)C[C@@H]2N(C)C)c2ccccc21 [CBK285468] | 108
50 | CC(C)c1ccc(NC(=O)CSc2n[nH]c(=O)n2-c2ccccc2)cc1 [CBK299826] | 89.3
51 | CCN(CC)CCN1C(=O)CCC2(c3ccccc3)CCC(=O)C=C12 (centres unmarked) [CBK023010C] | 105
52 | FC(F)(F)c1ccc(CN2CCN(c3nccnc3OCC3COc4ccccc4O3)CC2)cc1 (centres unmarked) [CBK082789T] | 115
53 | O=[N+]([O-])c1ccc(/C=N/c2cccc(-c3nc4ccccc4s3)c2)cc1 [CBK293918] | 91.4
54 | CN(C)CCN1CCN(c2nc(-c3ccc(S(C)(=O)=O)cc3)cnc2N)CC1 [CBK063457] | 100
55 | CCNc1nc(-c2cccc(/C=C/C(=O)O)c2)cn2ccnc12 [CBK066373] | 88.5
56 | Cc1ccc(S(=O)(=O)N(CC(=O)Nc2cccnc2)c2cccc([N+](=O)[O-])c2)cc1 [CBK266404] | 86
57 | CC1CCc2c(sc3nc(CN4CCCCC4C)[nH]c(=O)c23)C1 (centres unmarked) [CBK304975] | 89.3
58 | CCOC(=O)c1ccc(COc2cccc(-c3cnc4ccccc4n3)c2)cc1 [CBK266395] | 94.2
59 | CCNc1cc(-c2ccc(OC)cc2)ncn1 [CBK090883] | 89
60 | CCc1ccc(OCC(=O)c2ccc(O)c(CN(C)C)c2O)cc1 [CBK264438C] | 116
61 | N#C/C(=C\c1ccc(-c2ccc3c(c2)C(=O)NC3=O)o1)c1nc2ccccc2[nH]1 [CBK262965] | 94.4
62 | O=C(c1ccco1)N1CCN(c2cc(-c3ccc(OCc4ccccc4)cc3)ncn2)CC1 [CBK037844] | 97.6
63 | CC1CCCCN1Cc1nc2c(c(=O)n(C)c(=O)n2C)n1CCCc1ccccc1 (centres unmarked) [CBK269326] | 97
64 | O=S(=O)(c1ccc(-c2ccccc2)cc1)N1CCCN(CCCOC2CCCCO2)CC1 (centres unmarked) [CBK063137] | 114
65 | COc1ccc(-c2cc(-c3c(O)ccc4c(C)cc(=O)oc34)nc(N)n2)cc1OC [CBK074619] | 85
66 | COC(=O)c1cc(O)ccc1N [CBK002250] | 105

Row | SMILES | viability at 28.5 h, 10 µM [%]
67 | CCCNc1nccnc1-c1cccc(Cl)c1Cl [CBK088892] | 93.8
68 | CS(=O)(=O)CCS(=O)(=O)N1CCOCC1c1cccc(F)c1 (centres unmarked) [CBK304111] | 84.2
69 | c1cc2c(cc1CN1CCC(Oc3cncc(OCCN4CCOCC4)n3)C1)OCO2 (centres unmarked) [CBK084487] | 96.7
70 | CCN(CC)CCn1c(NC(=O)c2c(Cl)nc3ccccn23)nc2ccccc21 [CBK298305] | 107
71 | COc1ccc(NC(=O)C(C)n2nc(C(=O)O)c3ccccc3c2=O)cc1 (centres unmarked) [CBK295322] | 107
72 | O=S(=O)(Nc1cccc2[nH]ccc12)c1sc(Cl)cc1Br [CBK153552] | 69
73 | COCc1nc2n(n1)CC(NC1CCCc3sccc31)CC2 (centres unmarked) [CBK305116] | 90.1
74 | Cc1cc(C(=O)N2CCC(C(=O)c3ccnn3C)CC2)sc1C [CBK284428] | 89.3
75 | Cc1cc(C)nc(SCc2nc(N)nc(-c3ccccc3O)n2)n1 [CBK266725] | 94.4
76 | Cc1ccccc1CN1CCN(CC2CC3C=CC2C3)CC1 (centres unmarked) [CBK263402] | 88
77 | CCc1cnc(CN(C)C2CCN(CC(=O)Nc3cccnc3)C2)o1 (centres unmarked) [CBK305358] | 92
78 | COc1ccc2cc(C(=O)N3CCn4cncc4C3)n(C)c2c1 [CBK304362] | 98.6
79 | FC(F)(F)c1ccnc(OCCCc2ccncc2)n1 [CBK115799] | 97.5
80 | COc1ccc(Cc2nc3ccccc3n2CCc2ccccc2)cc1 [CBK266385] | 95.2
81 | N#CCCN(C(=O)NCc1cccc2ccccc12)C1CCCCC1 [CBK156353] | 89
82 | Cn1ncc(N2CCC(CNC(=O)c3ccc(F)cc3Cl)C2)cc1=O (centres unmarked) [CBK306643] | 97.1
83 | Cc1ccc(CN(CCCn2ccnc2)Cc2[nH]cnc2C)s1 [CBK283138] | 90.3
84 | COc1cc(NC(=O)CC2(CC(=O)O)CCCCC2)ccc1N1CCCC1=O [CBK296637] | 105
85 | CC(Cc1nc(-c2cnnn2C)cs1)n1cc(Cl)cn1 (centres unmarked) [CBK304245] | 99.6
86 | O=C(NC(c1ccc(F)cc1)c1cnccn1)C1CCN(C(=O)c2ccco2)CC1 (centres unmarked) [CBK059956] | 94.3
87 | O=C(Nc1cccc(-c2cccc(F)c2)c1)c1ccccc1Cn1cncn1 [CBK285735] | 87.4
88 | CC(C)(C)C(=O)NC(NC(=S)Nc1sc2c(c1C(N)=O)CCCC2)C(Cl)(Cl)Cl (centres unmarked) [CBK261052] | 94.7

same assay, conditions: human, hela cells, % viability, bulk resorufin, single well

Row | SMILES | viability at 28.5 h, 10 µM [%]
89 | COc1ccc(N2C(=O)/C(=C/c3ccc(OCC(=O)O)c(Cl)c3)C(=O)NC2=S)cc1 [CBK264018] | 93.7

From paper PMC12040169 (PLOS Biology, 2025)
